Assays:
[1] = Stability in Japan Pharmacopoeia 1st solution (pH 1.2) at 37° C., with or without stabilizer (TLC densitometry, 232 nm); type: physicochemical
Description: The stabilizers showing pH 3-10 used in the invention may be substances having a buffering or antacid action and showing pH 3-10, preferably 5.5-6.5. These are, for example, neutral amino acids or their basic salts, basic salts of acidic amino acids, basic amino acids,basic salts of organic carboxylic acids,basic salts of polybasic organic carboxylic acids, basic salts of uronic acid or inorganic salt antacids. The neutral amino acids or basic salts thereof include glycine, alanine, aminobutyric acid, proline, leucine, isoleucine, methionine, threonine, serine, valine, or their aluminium salts, for example aluminium glycinate. Among these, glycine, alanine and aluminium glycinate, both of which show pH 5.5-6.5, are preferable. The basic salts of acidic amino acid include monobasic salts such as a monosodium, monopotassium or magnesium salt of glutaminic or aspartic acid. Among these monobasic salts, monosodium glutamate or monosodium aspartate is preferable. The basic amino acids include arginine, glutamine, asparagine, citrulin, tryptophane and histidine. Especially, histidine is preferable. The basic salts of monobasic organic carboxylic acid include basic salts such as sodium, potassium, magnesium or aluminium salts of saturated monobasic organic carboxylic acids such as acetic acid and propionic acid, of unsaturated monobasic organic acids such as acrylic acid, crotonic acid and vinylacetic acid, and of other monobasic organic acids such as lactic acid, pyruvic acid, glyceric acid and acetoacetic acid. The basic salts of polybasic organic carboxylic acid include mono-, di- or tri-sodium, potassium, magnesium, calcium or aluminium salts of saturated polybasic organic carboxylic acids such as oxalic acid, malonic acid, succinic acid, glutaric acid, adipic acid and pimelic acid, of unsaturated polybasic organic carboxylic acids such as maleic acid and fumaric acid, and of other polybasic organic carboxylic acids such as meso-oxalic acid, malic acid, oxalacetic acid and citric acid. Among these, trisodium citrate is preferable. The basic salts of uric acids include sodium salts of glucuronic acid, galacturonic acid or their polymers such as alginic acid or peptic acid and dihydroxyaluminium aminoacetate sodium alginate. The inorganic salt antacids include calcium hydrogenphosphate, disodium hydrogenphosphate, dipotassium hydrogenphosphate, magnesium hydrogenphosphate, calcium carbonate, sodium carbonate, potassium carbonate, sodium hydrogen carbonate, aluminium carbonate, magnesium carbonate, potassium metasilicate, magnesium aluminate metasilicate, sodium metasilicate, synthetic aluminium silicate, magnesium silicate, aluminium silicate, magnesium aluminate silicate, magnesium-bismuth aluminate silicate, magnesium oxide, alumina-magnesium hydroxide, magnesium peroxide, magnesium hydroxide, aluminium hydroxide, synthetic hydrotarphite, aluminium phosphate and others. Especially, calcium phosphate and magnesium phosphate are preferable. Each of these stabilizers may be used alone or in the form of a mixture. […] A method for stabilization of 16-membered ring macrolide antibiotics of the present invention will be described in detail. The afore-mentioned various 16-membered ring macrolide antibiotics, for example 9-hydroxy 16-membered ring macrolides such as midecamycin, 3"-propionylleucomycin A5 and josamycin and 9-acyloxy 16-membered ring macrolides such as 9,3"-diacetylmidecamycin and 9-propionyljosamycin show extremely poor residual rates when added to an acidic solution of the Japanese Pharmacopoeia lst liquid (pH 1.2) and allowed to stand. That is, the 9hydroxy 16-membered ring maclorides decompose in a short time to by-produce their iso, demycarosyl and/or isodemycarosyl forms. The 9-acyloxy 16-membered ring macrolides decompose, too, to by-produce their 9-deacyl, 9-deacyl-iso, demycarosyl, 9-deacyl-demycarosyl or 9-deacyl-iso-demycarosyl forms. […]

[2] = Elution rate of TMS-19-Q with glycine and citric or tartaric acid in diluted physiological saline solution; type: physicochemical; conditions: for elution rate with 40 mg or more of citric acid: citric acid 40 mg or more, saline + water
Procedure: To 40 ml of physiological saline solution 120 ml of water was added, and after the solution was placed in a vessel whose temperature was kept constant in a thermostat at 37° C., 200 mg of TMS-19-Q, 340 mg of glycine and 0-80 mg of citric acid were added, and the mixture was stirred by a magnetic stirrer. Then sampling thereof was conducted in a lapse of time (at 5 minutes, 15 minutes and 30 minutes) to observe absorbance (wavelength: 232 nm) and elution rate was calculated.
To 40 ml of physiological saline solution 120 ml of water was added, and after the solution was kept in a vessel whose temperature was kept constant in a thermostat controlled at 37° C., 200 mg of TMS-19-Q, 340 mg of glycine and 0-80 mg of tartaric acid were added, and the same procedures as those of Example 27 were followed to examine the elution rate of TMS-19-Q.

SMILES: CCCC(=O)OC1C(C)OC(OC2C(C)OC(OC3C(CC=O)CC(C)C(O)/C=C/C=C/CC(C)OC(=O)CC(O)C3OC)C(O)C2N(C)C)CC1(C)OC(=O)CC (stereo not shown) [TMS-19-Q, 3"-propionyl leucomycin A5]
- improvement of stability compared with control, 30 minutes ([1]; 150 mg of glycine, value at 30 minutes): 30%
- stability in 1st solution (in words) ([1]; 1st solution pH 1.2, no stabilizer): extremely unstable
- stability with tri-sodium citrate (in words) ([1]; 150-300 mg of tri-sodium citrate, 1st solution): very much enhanced
- stability with calcium phosphate (in words) ([1]; 150-400 mg of calcium phosphate, 1st solution): very much enhanced
- stability with glycine (in words) ([1]; 150-900 mg of glycine, 1st solution): stabilized well
- stability with L-aspartic acid monosodium salt (in words) ([1]; 200-500 mg of Asp.Na, 1st solution): very much enhanced
- stability with monosodium glutamate (in words) ([1]; 200-500 mg of Glu.Na, 1st solution): very much enhanced
- degraded at 0.5 h ([1]; jp 1st solution, 1st solution pH 1.2, 37° C., 30 minutes, no stabilizer, read-out: decomposites (balance), 30 minutes): 39.5%
- remaining at 0.5 h ([1]; jp 1st solution, 1st solution pH 1.2, 37° C., 30 minutes, no stabilizer, read-out: residual amount after contact with 1st solution, 30 minutes): 60.5%
- degraded at 1 h ([1]; jp 1st solution, 1st solution pH 1.2, 37° C., 60 minutes, no stabilizer, read-out: decomposites (balance), 60 minutes): 41.4%
- remaining at 1 h ([1]; jp 1st solution, 1st solution pH 1.2, 37° C., 60 minutes, no stabilizer, read-out: residual amount after contact with 1st solution, 60 minutes): 58.6%
- stability with a larger amount of glycine (in words) ([1]; larger amount of glycine (up to 900 mg)): hardly decomposed
- elution rate with 0, 10 or 20 mg of citric acid ([2]; 200 mg potency, 340 mg glycine, pH 5.87, 5.51, 5.18): less than 60%
- elution rate with 20 mg or 10 mg of citric acid ([2]; 340 mg glycine, citric acid 20 mg or 10 mg, after 15-minute stirring): 45-55%
- elution rate with 40 mg or more of citric acid ([2]; 340 mg glycine): ≥ 95%
- elution rate with 40 mg or more of citric acid ([2]; 340 mg glycine, listed as 3"-propionylleucomycin A5): more than 95%
- elution rate with 0 mg of citric acid ([2]; 340 mg glycine, no citric acid, after 15-minute stirring): 10%
- elution rate with 0 mg of tartaric acid ([2]; 340 mg glycine, no tartaric acid, after 15-minute stirring): 10%
- elution rate with 20 mg or 10 mg of tartaric acid ([2]; 340 mg glycine, tartaric acid 20 mg or 10 mg, after 15-minute stirring): 40-55%
- elution rate with 40 mg or more of tartaric acid ([2]; 340 mg glycine, tartaric acid 40 mg or more, value at 15 minutes): ≥ 95%
- time within which elution was nearly completed (citric acid) ([2]; citric acid, solutions whose pH is equal to or less than 4.23): ≤ 15 min
- time within which elution was nearly completed (tartaric acid) ([2]; tartaric acid, solutions whose pH is equal to or less than 4.09): ≤ 15 min

— patent publication US4716153A, “Stable oral preparation of macrolide antibiotics and method for stabilizing the same” (priority 1982, dated 1987)
